Assay [1] deals with a2 receptors. Kind of assay: binding to a2 receptors.
In assay [2] the test system is a2 receptors. Kind of assay: functional action on a2 receptors. The assay is classed as biochemical.
The subject of another assay is Sprague-Dawley rats. Kind of assay: bulbectomy study (olfactory bulb removed, locomotor activity). The assay is classed as in vivo. As to the method: In a further animal model (Embodiment 3) an investigation was made as to whether the antidepressive effects of rotigotine can be distinguished from a general motor stimulation. In this case, rotigotine was administered to rats, whose olfactory bulb had been removed on both sides. The removal of the olfactory bulb leads in the untreated control group to an adaptive hyperactivity. It is known from the literature that chronically administered antidepressants lead to a reduction in movement activity of the animals in this model, while stimulants further increase the motor activity (van Riezen H et al., Br. J. Pharmacol. 60(4), 1977, 521; Kelly J P et al., Pharmacol. Ther. 74(3), 1997, 299). Therefore, it is possible to discriminate between antidepressive and non-specific stimulatory effects of an active ingredient with this model. […] The bulbectomy study was carried out on Sprague-Dawley rats. A group, which had seemingly been operated on, served as a control group and was operated on without the olfactory bulb being removed. 14 days after the operation, the rats were treated with excipients, rotigotine depot suspension (every second day) or imipramine. On test days, the rats were taken onto a test field and left to themselves for 3 minutes. The locomotor activities of the animals were measured here with the aid of the number of lines crossed.

The next assay has as its system rats. Kind of assay: forced swim test. The assay is classed as in vivo. As to conditions: subcutaneously applied. From the text: The “forced swim test” is an animal model, in which depressive episodes are triggered by acute stress. In this case, rats are forced to swim in a limited space. After initial attempts to save themselves, in which the animals grasp the hopelessness, they lapse into immobility. On repetition of the experiment, the animals remain immobile from the beginning of the experiment. In the event of pre-treatment with antidepressants, the period of immobility is shortened during the repetition experiment; the animals generally start searching and escape movements directly after transfer into the water basin (Porsolt, Biomedicine 30, 1979, 139).

The target in assay [3] is T1, 5HT1A receptor (Homo sapiens, UniProt P08908).
T1 sequence (P08908 1-422): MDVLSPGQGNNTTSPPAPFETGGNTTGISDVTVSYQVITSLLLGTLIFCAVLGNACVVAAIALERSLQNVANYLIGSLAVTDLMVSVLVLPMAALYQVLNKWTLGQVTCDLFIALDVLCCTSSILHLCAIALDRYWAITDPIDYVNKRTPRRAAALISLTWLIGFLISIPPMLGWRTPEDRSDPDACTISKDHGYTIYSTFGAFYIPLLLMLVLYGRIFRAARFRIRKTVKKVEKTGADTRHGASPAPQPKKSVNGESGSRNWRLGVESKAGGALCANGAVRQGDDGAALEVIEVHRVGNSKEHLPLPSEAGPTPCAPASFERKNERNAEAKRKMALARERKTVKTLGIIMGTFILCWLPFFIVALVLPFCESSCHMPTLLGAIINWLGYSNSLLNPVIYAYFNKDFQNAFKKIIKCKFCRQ
Kind of assay: binding to 5HT1A receptor.

The target in assay [4] is T1, 5HT1A receptor. Kind of assay: functional activity on 5HT1A receptors. The assay is classed as biochemical.

“Also recorded” adds a separate entry of the source.

For `CCCN(CCc1cccs1)C1CCc2c(O)cccc2C1` (single isomer, unassigned; (-)) [rotigotine, (−)-5,6,7,8-tetrahydro-6-[propyl[2-(2-thienyl)ethyl]amino]-1-naphthol], in the assay on a2 receptors [1], the “binding to a2 receptors” value is on record as “binds”. Also, the “mode of action on a2 receptors” value with a2 receptors [2] is “acts antagonistically”. In the assay with Sprague-Dawley rats (bulbectomised rats, low doses), the bulbectomy-induced locomotor hyperactivity result is “virtually complete suppression of the bulbectomy-induced locomotor hyperactivity; also recorded: significantly reduces the motor hyperactivity”. In the assay with Sprague-Dawley rats (higher doses, bulbectomised and control animals), the locomotor activity result was “stimulatory dopamine-agonistic effect predominates; also recorded: non-specific activation of the locomotor activity dominates”. Besides, the figures for the period of immobility entry with rats and in the assay with rats (listed as Rotigotine) were “clear reduction in the immobility period” and “significantly shortened period of immobility”, respectively. Further, the “binding to the 5HT1A receptor” value on 5HT1A receptor [3] is on record as “binds”. Further, at 5HT1A receptor [4], the “mode of action on 5HT1A receptors” value is “agonistic activity”.

For the origin of these results see US8754119B2, “Use of rotigotine for the treatment of depression” (priority 2003, dated 2014).
